Values joined by “and” are separate entries in the source; they are usually repeats but may differ in a detail not shown here. Equal values may be shown once. Read-outs that look alike come from different tables or passages of the source.
What was measured:
[1] = molecular target: T1, TLX ligand binding domain (Homo sapiens, UniProt Q9Y466); assay: TLX ligand sensing assay (AlphaScreen, RIP140 NR box peptide recruitment); type: biochemical
T1 construct: purchased NovAliX SAS, Strasbourg, France

[2] = molecular target: T2, GPR120 (Homo sapiens, UniProt Q5NUL3); assay: PathHunter β-arrestin assay (Eurofins Discovery), GPR120; type: cell-based; details: for EC50: β-arrestin assay, read-out: GPR120 EC50 measured; for GPR120 max. efficacy: oleic acid = 100
T2 sequence (Q5NUL3 1-361): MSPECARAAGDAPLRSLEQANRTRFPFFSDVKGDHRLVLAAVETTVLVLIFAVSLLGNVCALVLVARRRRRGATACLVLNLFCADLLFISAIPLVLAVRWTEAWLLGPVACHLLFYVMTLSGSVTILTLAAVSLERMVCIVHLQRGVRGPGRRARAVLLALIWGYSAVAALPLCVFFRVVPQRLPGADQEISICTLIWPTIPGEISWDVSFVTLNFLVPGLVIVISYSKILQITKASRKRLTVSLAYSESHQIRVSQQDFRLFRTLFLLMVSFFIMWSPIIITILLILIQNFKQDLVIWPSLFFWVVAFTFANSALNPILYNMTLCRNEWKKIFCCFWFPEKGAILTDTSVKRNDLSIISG
Method: (§1) With these compounds in hand, attention was directed at evaluating their properties as ligands to GPR40, GPR120,[24] and TLX. Initial profiling experiments were conducted targeting the GPCR targets at a single concentration (15 μM) in a commercially available β-arrestin assay.
(§2) Functional assays at GPR40 and GPR120 were conducted by Eurofins Discovery services using their PathHunter® b-Arrestin assay that monitors the activation of a GPCR in a homogenous, non-imaging assay format using a technology developed by DiscoverX called Enzyme Fragment Complementation (EFC) with b-galactosidase (b-Gal) as the functional reporter. b-Arrestin GPCR cell lines built on the principles of EFC are engineered to co-express the ProLinkTM (PK) tagged GPCR and the Enzyme Acceptor (EA) tagged b-Arrestin. Activation of the GPCR-PK induces b-Arrestin-EA recruitment, forcing complementation of the two b-galactosidase enzyme fragments (EA and PK). The resulting functional enzyme hydrolyzes substrate to generate chemiluminescent […]
(§3) Additional information can be found at: www.eurofinsdiscovery.com/solution/b-arrestin Below are dose-response curves generated from Eurofins Discovery services for activity of ligands depicted in Figure 6B at GPR40 (FFAR1) and GPR120. […]

[3] = molecular target: GPR40 (FFAR1) (Homo sapiens, UniProt O14842); assay: PathHunter β-arrestin assay (Eurofins Discovery), GPR40; type: cell-based; details: for EC50 / GPR40 max. efficacy: dose-response; for EC50: β-arrestin assay, read-out: GPR40 EC50 measured; for GPR40 max. efficacy: oleic acid = 100; for GPR40 potency relative to oleic acid: EC50 ratio vs control oleic acid
Method: as §1, §2, §3

[4] = Metabolic stability / intrinsic clearance in cryopreserved human hepatocytes
Method: To gain insight into potential metabolic issues, a preliminary assessment of 1-E and 3-C in a metabolic stability assay utilizing human hepatocytes was conducted.
7.1. ADME-Tox: In Vitro Metabolism
Intrinsic clearance (cr yopreserved hepatocytes, human)
Note: Unit of Clint is µ L/min/mg for microsomes, S9 and UGT assa ys; µL/min/pmol for CYP assays; µ L/min/Million cells for hepatocyte assays […]
8.1. Experimental Conditions
8.1.1. ADME-Tox: In Vitro Metabolism
8.2. Analysis and expression of results
8.2.1. ADME-Tox: In Vitro Metabolism
Intrinsic Clearance (microsomes, S9, cryopreserved hepatocytes, reco mbinant CYP, recombinant UGT) Metabolic stability, expressed as percent of the parent compound remaining , was calculated by comparing the peak area of the compound at the time point relative to that at time -0. The ha lf-life (T1/2) was estimated from the slope of the initial linear range of the logarithmic curve of compound remaining (%) vs. time, assu ming the first -order kinetics. The apparent intrinsic cleara nce (CLint, in µL/min/pmol, µL/min/mg or µL/min/Mcell ) was calculated according to the following formula: […]
T1/2*(mg protein/µL or million cells/µL or pmol CYP iso zyme/µL)

[5] = ALPHA normalized, supplement, read-out: TLX EC50 (dose-response curves)
[6] = maximal efficacy measured at 100 μM

Chain of GPR40 (FFAR1) (O14842 whole entry): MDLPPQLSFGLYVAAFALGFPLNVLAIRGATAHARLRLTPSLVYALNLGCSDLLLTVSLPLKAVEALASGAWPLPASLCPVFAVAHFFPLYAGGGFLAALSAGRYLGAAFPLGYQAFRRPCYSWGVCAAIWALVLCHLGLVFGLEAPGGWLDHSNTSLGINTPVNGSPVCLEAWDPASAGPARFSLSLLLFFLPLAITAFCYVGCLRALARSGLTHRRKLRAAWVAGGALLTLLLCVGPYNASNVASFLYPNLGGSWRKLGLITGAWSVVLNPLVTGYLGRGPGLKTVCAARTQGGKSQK
T1 sequence (Q9Y466 155-383 limits assumed): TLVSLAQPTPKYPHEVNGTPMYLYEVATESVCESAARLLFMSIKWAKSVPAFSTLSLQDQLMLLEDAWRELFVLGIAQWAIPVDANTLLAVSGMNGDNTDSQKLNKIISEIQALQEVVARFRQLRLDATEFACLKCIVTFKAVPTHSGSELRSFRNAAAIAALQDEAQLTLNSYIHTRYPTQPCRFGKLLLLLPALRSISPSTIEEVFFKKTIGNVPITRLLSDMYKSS

Row | Structure (SMILES) | EC50 [1, 5] [nM] | EC50 ([2]; dose-response) | EC50 [3] | GPR40 max. efficacy [3] [%] | also measured
1 | CCCCCCCCCC/C=C(/C)C/C(C)=C/[C@H](C)CC(=O)O [1-A] | 2180 |  |  |  | 
2 | CCCCCCCCCC/C=C(/C)C/C(C)=C/[C@@H](C)CC(=O)O [1-B] | 2360 |  |  |  | 
3 | CCCCCCCCC[C@@H](C)/C=C(/C)C/C(C)=C/[C@H](C)CC(=O)O [1-C] | 3120 | > 51000 nM | 7800 nM | 109 | GPR120 max. efficacy [2, 6]: 29%
4 | CCCCCCCCC[C@@H](C)/C=C(/C)C/C(C)=C/[C@@H](C)CC(=O)O [1-D] | 3170 |  |  |  | 
5 | CCCCCCCCC[C@H](C)/C=C(/C)C/C(C)=C/[C@H](C)CC(=O)O [1-E] | 1680 | > 47000 nM | 2600 nM | 75 | GPR120 max. efficacy [2, 6]: 32%; Half-life, single replicates (1st, 2nd, 3rd) ([4]; human hepatocytes, 1.0E-06 M, listed as GCM/LEM 1-E): 3.445 h and 2.168 h and 4.453 h; hepatocyte CLint at 1 µM ([4]; human, cryopreserved human hepatocytes): 5.4 µL/min/1e6 cells; half-life at 1 µM ([4]; human, cryopreserved human hepatocytes, Half-life (mean), human hepatocytes, 1.0E-06 M): 3.35 h; % Compound Remaining, mean ([4]; incubation 30 minutes, 1.0E-06 M): 96 % remaining; % Compound Remaining, single replicates (1st, 2nd, 3rd) ([4]; incubation 30 minutes, 1.0E-06 M, listed as GCM/LEM 1-E): 99.4 % remaining and 103.0 % remaining and 86.6 % remaining; % Compound Remaining, mean ([4]; incubation 60 minutes, 1.0E-06 M): 98 % remaining; % Compound Remaining, single replicates (1st, 2nd, 3rd) ([4]; incubation 60 minutes, 1.0E-06 M, listed as GCM/LEM 1-E): 83.9 % remaining and 103.8 % remaining and 106.9 % remaining; % Compound Remaining, mean ([4]; incubation 90 minutes, 1.0E-06 M): 85 % remaining; % Compound Remaining, single replicates (1st, 2nd, 3rd) ([4]; incubation 90 minutes, 1.0E-06 M, listed as GCM/LEM 1-E): 79.1 % remaining and 80.4 % remaining and 96.1 % remaining; % Compound Remaining, mean ([4]; incubation 120 minutes, 1.0E-06 M): 61 % remaining; % Compound Remaining, single replicates (1st, 2nd, 3rd) ([4]; incubation 120 minutes, 1.0E-06 M, listed as GCM/LEM 1-E): 67.8 % remaining and 50.9 % remaining and 64.3 % remaining; GPR40 potency relative to oleic acid [3]: 14 times
6 | CCCCCCCCC[C@H](C)/C=C(/C)C/C(C)=C/[C@@H](C)CC(=O)O [1-F] | 1870 | > 42000 nM | 7200 nM | 123 | GPR120 max. efficacy [2, 6]: 31%
7 | CCCCCCCC/C=C(/C)C/C(C)=C/[C@H](C)CCCC(=O)O [2-A] | 2510 |  |  |  | 
8 | CCCCCCCC/C=C(/C)C/C(C)=C/[C@@H](C)CCCC(=O)O [2-B] | 3080 |  |  |  | 
9 | CCCCCCC[C@@H](C)/C=C(/C)C/C(C)=C/[C@H](C)CCCC(=O)O [2-C] | 1510 | 2600 nM | 6200 nM and ~5000 nM | 95 | GPR120 max. efficacy ([2]; dose-response): 31%; GPR40 potency relative to oleic acid [3]: ~7 times
10 | CCCCCCC[C@@H](C)/C=C(/C)C/C(C)=C/[C@@H](C)CCCC(=O)O [2-D] | 1320 | ≥ 7500 nM and 1000 to 7000 nM | 5500 nM and ~5000 nM | 87 | GPR120 max. efficacy [2, 6]: 44%; GPR40 potency relative to oleic acid [3]: ~7 times
11 | CCCCCCC[C@H](C)/C=C(/C)C/C(C)=C/[C@H](C)CCCC(=O)O [2-E] | 1310 | 1100 nM | 5000 nM and ~5000 nM | 68 | selectivity for GPR120 ([2]; GPR120 over GPR40): 5 fold; GPR120 max. efficacy ([2]; dose-response): 35%; GPR40 potency relative to oleic acid [3]: ~7 times
12 | CCCCCCC[C@H](C)/C=C(/C)C/C(C)=C/[C@@H](C)CCCC(=O)O [2-F] | 1560 |  |  |  | 
13 | CCCCCC/C=C(/C)C/C(C)=C/[C@H](C)CCCCCC(=O)O [3-A] | 1560 |  |  |  | 
14 | CCCCCC/C=C(/C)C/C(C)=C/[C@@H](C)CCCCCC(=O)O [3-B] | 934 |  |  |  | EC50 ([1]; coactivator recruitment, read-out: TLX EC50): 900 nM; TLX max. efficacy ([1]; oleic acid = 100): 79%

Source: article PMC10906247, “From Functional Fatty Acids to Potent and Selective Natural-Product-Inspired Mimetics via Conformational Profiling” (ACS Central Science, 2024)
